Measured values as given in US11260023B2, “Topical compositions containing rofecoxib and methods of making and using the same” (BRIORI BIOTECH, LLC, priority 2020, dated 2022).
Values joined by “and” are separate entries in the source; they are usually repeats but may differ in a detail not shown here. Equal values may be shown once.

Experiment: Solubility of rofecoxib in solvent systems containing two or three solvents; synergistic or antagonist effect
Type: physicochemical
Description: The solubility of rofecoxib in solvent systems containing two or three solvents was determined. In solvent systems containing two solvents, […] of each solvent was added to 100 mg of rofecoxib. In solvent systems containing three solvents, […] of each solvent was added to 100 mg of rofecoxib. The samples were mixed using the protocol for solvent systems containing single solvents above. Serial dilutions of the rofecoxib solvent solutions were made (1:100 v:v), (1:1000 v/v), and (1:2000 v/v). Solvents without rofecoxib were diluted with methanol and used to blank a Beckman DU-7400 spectrophotometer. The absorbance of the samples was determined at a wavelength of 279.1 nm. The concentration of rofecoxib dissolved in the solvent was calculated using Beer's Law. The ability of the solvent systems to synergistically dissolve rofecoxib or antagonistically dissolve rofecoxib (reduce the ability of rofecoxib to dissolve was determined) according to the protocol below. The contribution for solubility of a single solvent in a two-mixture solution was calculated to be ½ of the calculated solubility of rofecoxib in one gram of excipient. Likewise, the contribution for solubility of a three-mixture was calculated to be ⅓ of the calculated solubility of rofecoxib in one gram of excipient. The expected solubility for a mixture is the addition of the contribution of each excipient. […] The percent change between the expected solubility and actual solubility was determined. […] Similar calculations are utilized for solvent systems containing three or more solvents.

% Change (observed vs expected solubility) (in DI + PGD): 123.9% | Expected Solubility (in DI + PGD): 23.04 mg/g | Observed Solubility (in DI + PGD): 28.54 mg/g | % Change (observed vs expected solubility) (in EA + AC): 79.1% | Expected Solubility (in EA + AC): 14.52 mg/g | Observed Solubility (in EA + AC): 11.49 mg/g | % Change (observed vs expected solubility) (in EA + AT): 82.6% | Expected Solubility (in EA + AT): 2.91 mg/g | Observed Solubility (in EA + AT): 2.40 mg/g | % Change (observed vs expected solubility) (in EA + BA): 94.1% | Expected Solubility (in EA + BA): 12.52 mg/g | Observed Solubility (in EA + BA): 11.78 mg/g | % Change (observed vs expected solubility) (in EA + DGME): 55.4% | Expected Solubility (in EA + DGME): 7.29 mg/g | Observed Solubility (in EA + DGME): 4.04 mg/g | % Change (observed vs expected solubility) (in EA + DI): 62.0% | Expected Solubility (in EA + DI): 22.32 mg/g | Observed Solubility (in EA + DI): 13.84 mg/g | % Change (observed vs expected solubility) (in EA + DIA): 85.7% | Expected Solubility (in EA + DIA): 3.77 mg/g | Observed Solubility (in EA + DIA): 3.23 mg/g | % Change (observed vs expected solubility) (in EA + DMSO): 122.9% | Expected Solubility (in EA + DMSO): 74.55 mg/g | Observed Solubility (in EA + DMSO): 91.63 mg/g | % Change (observed vs expected solubility) (in EA + DS): 88.0% | Expected Solubility (in EA + DS): 3.67 mg/g | Observed Solubility (in EA + DS): 3.22 mg/g | % Change (observed vs expected solubility) (in EA + IPTD): 41.5% | Expected Solubility (in EA + IPTD): 2.75 mg/g | Observed Solubility (in EA + IPTD): 1.14 mg/g | % Change (observed vs expected solubility) (in EA + M24D): 110.4% | Expected Solubility (in EA + M24D): 3.05 mg/g | Observed Solubility (in EA + M24D): 3.36 mg/g | % Change (observed vs expected solubility) (in EA + MP): 75.3% | Expected Solubility (in EA + MP): 101.75 mg/g | Observed Solubility (in EA + MP): 76.59 mg/g | % Change (observed vs expected solubility) (in EA + OA): 38.5% | Expected Solubility (in EA + OA): 2.95 mg/g | Observed Solubility (in EA + OA): 1.14 mg/g | % Change (observed vs expected solubility) (in EA + PC): 103.9% | Expected Solubility (in EA + PC): 27.47 mg/g | Observed Solubility (in EA + PC): 28.53 mg/g | % Change (observed vs expected solubility) (in EA + PEG): 120.0% | Expected Solubility (in EA + PEG): 9.32 mg/g | Observed Solubility (in EA + PEG): 11.19 mg/g | % Change (observed vs expected solubility) (in EA + PGD): 109.1% and 100.3% | Expected Solubility (in EA + PGD): 6.22 mg/g | Observed Solubility (in EA + PGD): 6.78 mg/g and 6.23 mg/g | % Change (observed vs expected solubility) (in EA + PPG): 156.1% | Expected Solubility (in EA + PPG): 2.90 mg/g | Observed Solubility (in EA + PPG): 4.53 mg/g | % Change (observed vs expected solubility) (in EA + PS20): 107.9% | Expected Solubility (in EA + PS20): 7.34 mg/g | Observed Solubility (in EA + PS20): 7.92 mg/g | % Change (observed vs expected solubility) (in EA + PS80): 105.8% | Expected Solubility (in EA + PS80): 7.61 mg/g | Observed Solubility (in EA + PS80): 8.05 mg/g | % Change (observed vs expected solubility) (in MP + EA): 71.4% | Expected Solubility (in MP + EA): 107.75 mg/g | Observed Solubility (in MP + EA): 76.89 mg/g | % Change (observed vs expected solubility) (in MP + PEG + PGD): 35.17% | Expected Solubility (in MP + PEG + PGD): 72.69 mg/g | Expected Solubility (in PC + AC): 36.48 mg/g and 36.5 mg/g | % Change (observed vs expected solubility) (in PC + AC + MP): 34.18% | Expected Solubility (in PC + AC + MP): 90.34 mg/g | % Change (observed vs expected solubility) (in PC + AC + PEG): 123.74% | Expected Solubility (in PC + AC + PEG): 28.72 mg/g | Observed Solubility (in PC + AC + PEG): 35.53 mg/g | % Change (observed vs expected solubility) (in PC + AC + PGD): 200.59% and 129.71% and 114.18% | Expected Solubility (in PC + AC + PGD): 26.65 mg/g | Observed Solubility (in PC + AC + PGD): 53.45 mg/g and 34.56 mg/g | % Change (observed vs expected solubility) (in PC + BA): 99.3% | Expected Solubility (in PC + BA): 34.49 mg/g | Observed Solubility (in PC + BA): 34.26 mg/g | % Change (observed vs expected solubility) (in PC + BA + AC): 134.75% | Expected Solubility (in PC + BA + AC): 30.85 mg/g | Observed Solubility (in PC + BA + AC): 41.57 mg/g | % Change (observed vs expected solubility) (in PC + BA + DMSO): 85.64% | Expected Solubility (in PC + BA + DMSO): 70.86 mg/g | % Change (observed vs expected solubility) (in PC + BA + MP): 21.30% | Expected Solubility (in PC + BA + MP): 88.99 mg/g | % Change (observed vs expected solubility) (in PC + BA + PEG): 63.48% | Expected Solubility (in PC + BA + PEG): 27.37 mg/g | % Change (observed vs expected solubility) (in PC + BA + PGD): 84.91% | Expected Solubility (in PC + BA + PGD): 25.30 mg/g | % Change (observed vs expected solubility) (in PC + MP): 69.3% | Expected Solubility (in PC + MP): 123.72 mg/g | Observed Solubility (in PC + MP): 85.76 mg/g | % Change (observed vs expected solubility) (in PC + MP + PEG): 46.39% | Expected Solubility (in PC + MP + PEG): 86.86 mg/g | % Change (observed vs expected solubility) (in PC + MP + PGD): 21.70% | Expected Solubility (in PC + MP + PGD): 84.79 mg/g | % Change (observed vs expected solubility) (in PC + PEG + PGD): 153.76% | Expected Solubility (in PC + PEG + PGD): 23.17 mg/g | Observed Solubility (in PC + PEG + PGD): 35.62 mg/g | % Change (observed vs expected solubility) (in PC + PGD): 123.0% and 97.8% | Expected Solubility (in PC + PGD): 28.18 mg/g | Observed Solubility (in PC + PGD): 34.66 mg/g and 27.55 mg/g | % Change (observed vs expected solubility) (in PEG + DGME): 119.7% | Expected Solubility (in PEG + DGME): 11.11 mg/g | Observed Solubility (in PEG + DGME): 13.30 mg/g | % Change (observed vs expected solubility) (in PEG + EA): 150.3% | Expected Solubility (in PEG + EA): 9.32 mg/g | Observed Solubility (in PEG + EA): 14.00 mg/g | % Change (observed vs expected solubility) (in PEG + PGD): 124.5% and 120.8% | Expected Solubility (in PEG + PGD): 10.04 mg/g | Observed Solubility (in PEG + PGD): 12.50 mg/g and 12.13 mg/g
Compound: CS(=O)(=O)c1ccc(C2=C(c3ccccc3)C(=O)OC2)cc1 [Rofecoxib]
